In patent publication US20250382297A1, “INHIBITORS OF FGFR2 AND FGFR3 AND USES THEREOF” (Insilico Medicine IP Limited, priority 2022, published 2025):
Where two headings read alike, the source gives them in different places.

What was measured:
FGFR2 = FGFR2 (Homo sapiens (Human), UniProt P21802); test: FGFR biochemical assay (LanthaScreen TR-FRET kinase assay), FGFR2
Description: (§1) Convert Ratio values to percent inhibition values (Percent inhibition=(max−sample Ratio)/(max−min)*100) where “min” means the Ratio of no enzyme control and “max” means the Ratio of DMSO control. • Data are analyzed and curve fitting is performed by XLFit Excel add-in version 5.4.0.8. The IC50 calculation equation is: Y=Bottom+(Top-Bottom)/(1+ (IC50/X)^HillSlope.

FGFR1 = FGFR1 (Homo sapiens (Human), UniProt P11362); test: FGFR biochemical assay (LanthaScreen TR-FRET kinase assay), FGFR1
Description: as §1

FGFR3 = FGFR3 (Homo sapiens (Human), UniProt P22607); test: FGFR biochemical assay (LanthaScreen TR-FRET kinase assay), FGFR3
Description: as §1

[1] = read-out: FGFR2 IC50, incubation with enzyme at room temperature for 10 minutes before substrate, ATP 22 μM, FGFR2 0.01 nM
[2] = read-out: FGFR2 IC50, * incubation at room temperature for 60 minutes before addition of substrate solution, ATP 22 μM, FGFR2 0.01 nM
[3] = read-out: FGFR1 IC50, incubation with enzyme at room temperature for 10 minutes before substrate, ATP 28 μM, FGFR1 0.01 nM
[4] = read-out: FGFR3 IC50, * incubation at room temperature for 60 minutes before addition of substrate solution, ATP 35 μM, FGFR3 0.1 nM

Chain of FGFR1 (P11362 22-822): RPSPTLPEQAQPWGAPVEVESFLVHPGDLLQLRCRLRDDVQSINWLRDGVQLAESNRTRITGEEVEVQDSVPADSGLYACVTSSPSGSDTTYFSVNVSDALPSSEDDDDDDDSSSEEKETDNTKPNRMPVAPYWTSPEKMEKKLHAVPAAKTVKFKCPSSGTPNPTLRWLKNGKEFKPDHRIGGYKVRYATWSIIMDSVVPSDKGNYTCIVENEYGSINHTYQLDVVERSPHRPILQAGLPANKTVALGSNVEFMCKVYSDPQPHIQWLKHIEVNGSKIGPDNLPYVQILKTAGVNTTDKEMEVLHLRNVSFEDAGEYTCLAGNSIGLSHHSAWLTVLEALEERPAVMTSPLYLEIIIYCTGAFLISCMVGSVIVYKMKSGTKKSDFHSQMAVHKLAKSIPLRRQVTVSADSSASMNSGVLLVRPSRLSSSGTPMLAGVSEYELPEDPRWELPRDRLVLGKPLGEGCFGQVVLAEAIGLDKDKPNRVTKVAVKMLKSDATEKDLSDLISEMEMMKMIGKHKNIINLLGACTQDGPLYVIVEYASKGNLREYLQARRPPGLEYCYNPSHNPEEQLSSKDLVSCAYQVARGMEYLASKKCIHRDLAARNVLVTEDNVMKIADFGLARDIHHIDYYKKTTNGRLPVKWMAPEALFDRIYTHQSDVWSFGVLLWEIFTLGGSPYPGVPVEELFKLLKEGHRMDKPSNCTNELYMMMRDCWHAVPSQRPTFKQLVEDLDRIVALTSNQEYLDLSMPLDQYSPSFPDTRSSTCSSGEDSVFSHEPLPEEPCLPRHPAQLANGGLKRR
Chain of FGFR3 (P22607 23-806): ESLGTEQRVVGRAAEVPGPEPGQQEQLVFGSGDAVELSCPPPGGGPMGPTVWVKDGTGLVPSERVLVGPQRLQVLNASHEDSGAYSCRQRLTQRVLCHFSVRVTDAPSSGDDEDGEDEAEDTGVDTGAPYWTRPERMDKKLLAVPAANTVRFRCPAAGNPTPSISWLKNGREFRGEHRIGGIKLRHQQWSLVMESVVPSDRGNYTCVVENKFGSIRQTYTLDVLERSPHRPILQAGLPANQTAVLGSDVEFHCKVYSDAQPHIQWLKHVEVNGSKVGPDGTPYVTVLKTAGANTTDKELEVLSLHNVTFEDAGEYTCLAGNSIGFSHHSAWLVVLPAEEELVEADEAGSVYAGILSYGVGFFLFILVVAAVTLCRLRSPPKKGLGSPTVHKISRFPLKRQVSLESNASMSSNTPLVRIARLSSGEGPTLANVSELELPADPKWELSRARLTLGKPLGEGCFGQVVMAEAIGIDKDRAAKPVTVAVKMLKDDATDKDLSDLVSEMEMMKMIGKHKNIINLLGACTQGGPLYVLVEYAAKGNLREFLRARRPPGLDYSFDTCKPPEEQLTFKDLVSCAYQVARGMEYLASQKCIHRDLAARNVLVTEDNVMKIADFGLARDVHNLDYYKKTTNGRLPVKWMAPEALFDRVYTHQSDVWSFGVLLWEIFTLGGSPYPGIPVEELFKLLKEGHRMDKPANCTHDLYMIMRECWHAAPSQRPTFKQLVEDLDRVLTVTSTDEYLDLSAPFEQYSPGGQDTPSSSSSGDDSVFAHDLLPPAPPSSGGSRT
Chain of FGFR2 (P21802 22-821): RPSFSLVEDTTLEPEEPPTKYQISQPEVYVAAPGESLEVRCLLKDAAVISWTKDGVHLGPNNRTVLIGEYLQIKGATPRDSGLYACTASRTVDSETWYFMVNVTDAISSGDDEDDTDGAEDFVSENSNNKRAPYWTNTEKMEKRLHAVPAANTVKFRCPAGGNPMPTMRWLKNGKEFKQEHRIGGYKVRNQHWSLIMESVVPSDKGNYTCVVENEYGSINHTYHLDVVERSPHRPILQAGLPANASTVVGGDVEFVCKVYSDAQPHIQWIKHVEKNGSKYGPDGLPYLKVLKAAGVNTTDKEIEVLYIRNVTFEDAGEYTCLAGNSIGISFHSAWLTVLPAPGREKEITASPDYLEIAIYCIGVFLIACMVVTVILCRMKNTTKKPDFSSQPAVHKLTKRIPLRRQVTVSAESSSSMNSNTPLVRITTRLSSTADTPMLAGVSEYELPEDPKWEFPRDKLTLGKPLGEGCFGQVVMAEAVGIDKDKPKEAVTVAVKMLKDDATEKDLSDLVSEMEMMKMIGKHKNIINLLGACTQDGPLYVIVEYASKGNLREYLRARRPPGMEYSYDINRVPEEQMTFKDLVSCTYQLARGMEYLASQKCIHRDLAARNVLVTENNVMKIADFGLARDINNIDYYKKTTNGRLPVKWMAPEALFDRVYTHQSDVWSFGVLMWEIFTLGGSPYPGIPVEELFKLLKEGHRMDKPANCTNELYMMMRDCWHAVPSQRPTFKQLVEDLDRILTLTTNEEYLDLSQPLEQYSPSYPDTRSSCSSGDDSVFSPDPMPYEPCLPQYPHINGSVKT

SMILES	IC50 (FGFR2; [1])	IC50 (FGFR1)	IC50 (FGFR3; read-out: FGFR3 IC50, incubation with enzyme at room temperature for 10 minutes before substrate, ATP 35 μM, FGFR3 0.1 nM)	IC50 (FGFR2; [2])	IC50 (FGFR3)	IC50 (FGFR2)	IC50 (FGFR1; [3])	IC50 (FGFR3; [4])
C=CC(=O)Nc1ccc(-c2c(-c3ccc(OC4CCCC4)cc3)c(C(N)=O)c3cnccn23)cc1 [Example 28, 6-(4-acrylamidophenyl)-7-(4-(cyclopentyloxy)phenyl)pyrrolo[1,2-a]pyrazine-8-carboxamide]	< 10 nM	100 to 1000 nM	< 10 nM					
C=C(F)C(=O)Nc1ccc(-c2c(-c3ccc(C(=O)NCC4(F)COC4)cc3)c(C(N)=O)c3cnc(C)cn23)cc1 [Example 63, 6-(4-(2-fluoroacrylamido)phenyl)-7-(4-(((3-fluorooxetan-3-yl)methyl)carbamoyl)phenyl)-3-methylpyrrolo[1,2-a]pyrazine-8-carboxamide]		10 to 100 nM		< 10 nM	10 to 100 nM			
C=CC(=O)Nc1ccc(-c2c(-c3ccc(Oc4cccc(C)n4)cc3)c(C(N)=O)c3cnc(C4CN(C)C4)cn23)cc1 [Example 21, 6-(4-acrylamidophenyl)-3-(1-methylazetidin-3-yl)-7-(4-((6-methylpyridin-2-yl)oxy)phenyl)pyrrolo[1,2-a]pyrazine-8-carboxamide]	< 10 nM	100 to 1000 nM			10 to 100 nM			
C=C(F)C(=O)Nc1ccc(-c2c(-c3cc(F)c(Oc4nccc(C)n4)c(F)c3)c(C(N)=O)c3cnc(C)cn23)cc1 [Example 48, 7-(3,5-difluoro-4-((4-methylpyrimidin-2-yl)oxy)phenyl)-6-(4-(2-fluoroacrylamido)phenyl)-3-methylpyrrolo[1,2-a]pyrazine-8-carboxamide]		100 to 1000 nM			10 to 100 nM	10 to 100 nM		
C=CC(=O)N1CC=C(c2c(-c3ccc(Oc4nccc(C)n4)c(F)c3)c(C(N)=O)c3cnc(C)cn23)CC1 [Example 101, 6-(1-acryloyl-1,2,3,6-tetrahydropyridin-4-yl)-7-(3-fluoro-4-((4-methylpyrimidin-2-yl)oxy)phenyl)-3-methylpyrrolo[1,2-a]pyrazine-8-carboxamide]		10 to 100 nM			10 to 100 nM	10 to 100 nM		
C=C(F)C(=O)Nc1ccc(-c2c(-c3ccc(Oc4nccc(C)n4)c(F)c3)c(C(N)=O)c3ccc(C)nn23)cc1 [Example 93, 6-(3-fluoro-4-((4-methylpyrimidin-2-yl)oxy)phenyl)-7-(4-(2-fluoroacrylamido)phenyl)-2-methylpyrrolo[1,2-b]pyridazine-5-carboxamide]		100 to 1000 nM			10 to 100 nM	10 to 100 nM		
C=C(C)C(=O)Nc1ccc(-c2c(-c3ccc(Oc4nccc(C)n4)c(F)c3)c(C(N)=O)c3cnccn23)cc1 [Example 34, 7-(3-fluoro-4-((4-methylpyrimidin-2-yl)oxy)phenyl)-6-(4-methacrylamidophenyl)pyrrolo[1,2-a]pyrazine-8-carboxamide]					100 to 1000 nM	100 to 1000 nM	> 1000 nM	
C=CC(=O)Nc1ccc(-c2c(-c3ccc(Oc4cccc(C)n4)cc3)c(C(N)=O)c3cnc(S(=O)(=O)NC)cn23)cc1 [Example 18, 6-(4-acrylamidophenyl)-7-(4-((6-methylpyridin-2-yl)oxy)phenyl)-3-(N-methylsulfamoyl)pyrrolo[1,2-a]pyrazine-8-carboxamide]	< 10 nM	100 to 1000 nM			10 to 100 nM			
C=C(F)C(=O)Nc1ccc(-c2c(-c3ccc(Oc4ncc(F)c(C)n4)c(F)c3)c(C(N)=O)c3cnc(C)cn23)cc1 [Example 54, 7-(3-fluoro-4-((5-fluoro-4-methylpyrimidin-2-yl)oxy)phenyl)-6-(4-(2-fluoroacrylamido)phenyl)-3-methylpyrrolo[1,2-a]pyrazine-8-carboxamide]		100 to 1000 nM			10 to 100 nM	10 to 100 nM		
C=CC(=O)Nc1cc(C)c(-c2c(-c3ccc(Oc4cccc(C)n4)cc3)c(C(N)=O)c3cnccn23)cn1 [Example 4, 6-(6-acrylamido-4-methylpyridin-3-yl)-7-(4-((6-methylpyridin-2-yl)oxy)phenyl)pyrrolo[1,2-a]pyrazine-8-carboxamide]		10 to 100 nM			10 to 100 nM	10 to 100 nM		
C=C(F)C(=O)N1CCc2cc(-c3c(-c4ccc(Oc5nccc(C)n5)c(F)c4)c(C(N)=O)c4ccc(C)nn34)c(C)cc21 [Example 96, 6-(3-fluoro-4-((4-methylpyrimidin-2-yl)oxy)phenyl)-7-(1-(2-fluoroacryloyl)-6-methylindolin-5-yl)-2-methylpyrrolo[1,2-b]pyridazine-5-carboxamide]		10 to 100 nM		< 10 nM				< 10 nM
C=CC(=O)Nc1ccc(-c2c(-c3ccc(Oc4cccc(C)n4)cc3)c(C(N)=O)c3cnc(C#N)cn23)cc1 [Example 77, 6-(4-acrylamidophenyl)-3-cyano-7-(4-((6-methylpyridin-2-yl)oxy)phenyl)pyrrolo[1,2-a]pyrazine-8-carboxamide]					100 to 1000 nM	10 to 100 nM	> 1000 nM	
C=C(F)C(=O)Nc1ccc(-c2c(-c3ccc(Oc4nccc(C)n4)c(F)c3)c(C(N)=O)c3cnc(C)cn23)cn1 [Example 51, 7-(3-fluoro-4-((4-methylpyrimidin-2-yl)oxy)phenyl)-6-(6-(2-fluoroacrylamido)pyridin-3-yl)-3-methylpyrrolo[1,2-a]pyrazine-8-carboxamide]	< 10 nM	10 to 100 nM			10 to 100 nM			
C=CC(=O)Nc1ccc(-c2c(-c3ccc(Oc4nccc(C)n4)c(F)c3)c(C(N)=O)c3cnc(C)cn23)cc1C [Example 37, 6-(4-acrylamido-3-methylphenyl)-7-(3-fluoro-4-((4-methylpyrimidin-2-yl)oxy)phenyl)-3-methylpyrrolo[1,2-a]pyrazine-8-carboxamide]					100 to 1000 nM	10 to 100 nM	> 1000 nM	
C=C(F)C(=O)Nc1ccc(-c2c(-c3ccc(Oc4nccc(C)n4)c(F)c3)c(C(N)=O)c3cc(-c4cnn(C)c4)ncn23)cc1 [Example 86, 6-(3-fluoro-4-((4-methylpyrimidin-2-yl)oxy)phenyl)-7-(4-(2-fluoroacrylamido)phenyl)-3-(1-methyl-1H-pyrazol-4-yl)pyrrolo[1,2-c]pyrimidine-5-carboxamide]		10 to 100 nM		< 10 nM	10 to 100 nM			
Cc1ccnc(Oc2ccc(-c3c(C(N)=O)c4cnc(CO)cn4c3-c3ccc(NC(=O)/C=C/CN(C)C)cc3)cc2)n1 [Example 79, (E)-6-(4-(4-(dimethylamino)but-2-enamido)phenyl)-3-(hydroxymethyl)-7-(4-((4-methylpyrimidin-2-yl)oxy)phenyl)pyrrolo[1,2-a]pyrazine-8-carboxamide]	< 10 nM	10 to 100 nM			10 to 100 nM			
C=CC(=O)Nc1ccc(-c2c(-c3ccc(Oc4cccc(C)n4)cc3)c(C(N)=O)c3cccnn23)cc1 [Example 20, 7-(4-acrylamidophenyl)-6-(4-((6-methylpyridin-2-yl)oxy)phenyl)pyrrolo[1,2-b]pyridazine-5-carboxamide]	< 10 nM	10 to 100 nM			10 to 100 nM			
C=C(F)C(=O)Nc1ccc(-c2c(-c3ccc(Oc4nccc(C)n4)c(F)c3)c(C(N)=O)c3cnc(CCO)cn23)c(F)c1 [Example 82, 7-(3-fluoro-4-((4-methylpyrimidin-2-yl)oxy)phenyl)-6-(2-fluoro-4-(2-fluoroacrylamido)phenyl)-3-(2-hydroxyethyl)pyrrolo[1,2-a]pyrazine-8-carboxamide]		10 to 100 nM		< 10 nM				< 10 nM
